Converted amounts (≈) assume the structure as drawn. Where two headings read alike, the source gives them in different places.
Tests used:
[1] = tested on: HIV-1 14aPre; test: Drug combination studies, neutralization of HIV-1 14aPre; assay type: cell-based
[2] = tested on: HIV-1 (JR-CSF); assay type: cell-based
[3] = tested on: gp120-mediated syncytium formation; test: Inhibition of gp120-mediated syncytium formation (HL2/3 and HeLa-CD4-LTR-β-gal cells); details: 48 hours; PIC 024.4 based on 100% polymer by weight
Method: The effect of test compound on syncytium formation was evaluated using an assay developed by Dr. George Pavlakis and coworkers (Ciminale, V. et al., AIDS Res. Hum. Retro-viruses 6:1281-1287 (1990)). […] The cultures were then incubated in the presence of drug for 48 hours at 37° C., fixed and stained with X-gal. Blue syncytia were counted using an inverted microscope, and percent inhibition and IC50 values were calculated.

[4] = tested on: HIV-1 (ADA); test: microbe, parasite or virus in culture; assay type: cell-based; details: Human immunodeficiency virus 1, Monocyte, monocytes
[5] = molecular target: T1, gp120/CD4 (Homo sapiens, UniProt P01730); test: biochemical; assay type: binding
T1 construct: recombinant, soluble four-domain CD4 (sCD4) expressed in insect cells; host or cells: insect cells (sCD4)
Method: Polystyrene 96-well microtiter plates were treated with a 1 μg/ml solution of recombinant, soluble four-domain CD4 (sCD4) expressed in insect cells (100 μl/well) and allowed to incubate for two hours at room temperature. Plates were blocked for two hours at 4° C. with phosphate-buffered saline (PBS) containing 0.05% Tween-20 and 10 mg/ml bovine serum albumin (PBSTB, 200 μl/well), and then washed five times with PBS containing 0.05% Tween-20. Fifty microliters of 60 ng/ml recombinant gp120 (IIIB isolate) and 50 μl of each drug dilution in PBSTB were added to duplicate wells, and the plate was incubated overnight at 4° C. The plate was then washed five times with PBST and treated with a 210 μg/ml solution of monoclonal antibody NEA 9205 (100 gp120-III/well). This antibody recognizes the V3 loop region of gp120-IIIB. After incubation for 2 hours at 4° C., the plate was washed five times with PBST and treated with an anti-mouse IgGl antibody conjugated to alkaline phosphatase. After an additional incubation for 1 hour at 4° C., the plate was washed five times with PBST, treated with a p-nitrophenyl phosphate substrate solution, incubated for about 30 minutes at room temperature, and monitored for color development at 405 nm. […]

[6] = molecular target: T2, OKT4 binding to recombinant sCD4 (Homo sapiens, UniProt P01730); test: Inhibition of monoclonal antibody OKT4 binding to CD4 (ELISA); details: antibody 30 ng/ml
T2 construct: Plates coated with recombinant, soluble CD4 were treated with antibody
Method: (§1) A panel of related ELISA systems was used to evaluate the effect of test compounds on the binding of various monoclonal antibodies to recombinant sCD4 absorbed on plastic. Two of these antibodies, Leu3A and 19Thy, are directed against gp120 binding site on CD4. […] The ELISA formats were similar to those used to measure gp120 binding to CD4. Plates coated with recombinant, soluble CD4 were treated with antibody (30 ng/ml) and serial dilutions of drug. After incubation and washing, bound antibody was detected using an appropriate isotype-specific anti-immunoglobulin alkaline phosphatase conjugate.

[7] = molecular target: T3, 19Thy binding to recombinant sCD4 (Homo sapiens, UniProt P01730); test: Inhibition of monoclonal antibody 19Thy binding to CD4 (ELISA); details: antibody 30 ng/ml; read-out: IC50 MAb binding inhibition, 19Thy (converted)
T3 construct: Plates coated with recombinant, soluble CD4 were treated with antibody
Method: as §1

[8] = molecular target: T4, Leu3A binding to recombinant sCD4 (Homo sapiens, UniProt P01730); test: Inhibition of monoclonal antibody Leu3A binding to CD4 (ELISA); details: antibody 30 ng/ml; read-out: IC50 MAb binding inhibition, Leu3A (converted)
T4 construct: Plates coated with recombinant, soluble CD4 were treated with antibody
Method: as §1

[9] = tested on: HIV-1, strain HTLV-IIIB; assay type: cell-based; details: CEM-T4 cells, day 8; PIC 024.4 30% polymer by weight
Method: Dilutions were prepared in culture medium, and the compound was tested at concentrations ranging from 100 μg/ml to 0.003 μg/ml in half-log10 dilutions.
The assay was done in 96-well tissue culture plates using the CEM-T4 human T-lymphocyte cell line. The culture medium used was RPMI-1640 medium containing 25 mM N-[2-Hydroxyethyl]piperazine-n^1-[2-ethanesulfonic acid] (HEPES, Sigma Chemical Co.) and 2 mM L-glutamine, and supplemented with 10% fetal bovine serum, 2 mM L-glutamine, 50 units of penicillin G per ml, and 50 μg streptomycin sulfate per ml. CEM-T4 cells were treated with polybrene at a concentration of 2 μg/ml, and a 130 μl volume of cells (1×10^4 cells) was dispensed into each well. To one assay plate for each drug a 50 μl volume of each drug dilution (prepared as a 4×concentration) was added to five wells of cells, and the cells were incubated at 37° C. for two hours. […]
On the eighth day post-infection, the cells in each well were suspended and a 50-μl sample of each cell suspension was transferred to a new 96-well plate for use in the following assay. […] The absorbance at 590 nm was determined for each sample using a Molecular Devices Vmax microplate reader. […] When a dose-dependent effect for either CPE-inhibition or toxicity was seen, values for the 50% effective dose were calculated using the dose-effect analysis software of Chou and Chou (Elsevier-Biosoft).

[10] = tested on: IIIB; details: cited from earlier work
[11] = molecular target: T5, gp120 (SF2 isolate)/sCD4 (Homo sapiens, UniProt P01730); assay type: binding
T5 construct: recombinant sCD4 was immobilized to the sensor surface
Description: This assay provided a direct measure of the ability of test compounds to inhibit the gp120/CD4 binding interaction. The BIAcore™ biosensor (Pharmacia Biosensor) allows for real-time interaction analysis without the need for labeling (Jonsson et al., BioTechniques 11:620-627 (1991); Malmquist, Nature 361:186-198 (1993)). Its operation is based on optical surface plasmon resonance (SPR) for detecting small changes in the refractive index on the surface of a thin gold film coated with a dextran matrix to which one ligand is immobilized. In the experiments described here, recombinant sCD4 was immobilized to the sensor surface by a standard amine coupling chemistry. Recombinant gp120 (SF2 isolate), alone or in the presence of test compound, was passed over the surface, and binding monitored by a change in “resonance units” (RU's). Percent inhibition was determined relative to RU levels observed in the absence of drug. A correction was made to account for the mass of the test article.

[12] = molecular target: T6, gp120 binding to CD4 receptor on CEM cells (Homo sapiens, UniProt P01730); assay type: cell-based; details: recombinant gp120 (IIIB) 10 nM; PIC 024.4 based on 100% polymer by weight
T6 construct: the CD4 receptor expressed on the surface of lymphocytic cells; endogenous in cells; host or cells: CEM cells
Method: This assay was used to measure the ability of test compounds to inhibit the binding of recombinant gp120 to the CD4 receptor expressed on the surface of lymphocytic cells. Cells of the CEM line (a CD4+ human T cell leukemia line) were suspended at 3×10^6 cells/ml in RPMI 1640 medium supplemented with 10% fetal bovine serum (FBS) containing 0.002% sodium azide, and 100 μl was aliquoted to individual assay tubes. Serial dilutions of test compound in water were added (10 μl/tube) and the tubes incubated for 2 hours at 25° C. Next, recombinant gp120 (IIIB isolate) diluted in RPMI 1640 buffer was added to a final concentration of 10 nM (1.2 μg/ml) and the tubes incubated overnight at 37° C. Cells were then washed thoroughly with PBS containing 10% FBS and 0.01% sodium azide. V3-specific monoclonal antibody NEA9284 was added to a concentration of 1 μg/ml and incubated for 30 minutes on ice. The cells were washed thoroughly as before and stained with fluorescein-labeled goat anti-mouse immunoglobulin for 30 minutes on ice. The washed cells were analyzed for mean fluorescence on a FACScan™ flow cytometer (Becton Dickinson). Percent inhibition of fluorescence was determined relative to cells that were not treated with drug.

[13] = tested on: monocytotropic isolates; details: cited from earlier work
[14] = molecular target: T7, gp120 binding to CD4 receptor on lymphocytes in whole blood (Homo sapiens, UniProt P01730); assay type: cell-based; details: gp120-biotin 10 nM
T7 construct: the CD4 receptor expressed on the surface of lymphocytes in whole blood; from tissue; host or cells: freshly collected anticoagulated whole blood from normal donors
Method: This assay was used to measure the ability of test compounds to inhibit the binding of recombinant gp120 to the CD4 receptor expressed on the surface of lymphocytes in whole blood. Freshly collected, anticoagulated whole blood from normal donors (100 μl per tube) was treated with test compound and incubated for 2 hours at room temperature. The tubes were then treated with gp120-biotin (American Bio-Technology Products) to a final concentration of 10 nM, and incubated for an additional 3 hours at room temperature. Cells were then stained with fluorescein-labeled streptavidin (Becton Dickinson), treated with lysis buffer (Becton Dickinson), and washed with PBS containing 0.1% azide. Cells were then subjected to flow cytometric analysis on a FACScan™ flow cytometer (Becton Dickinson) and the mean fluorescence for the lymphocyte population was measured. Percent inhibition of fluorescence was determined relative to cells that were not treated with drug.

Question: With `Cc1cn([C@H]2C[C@H](N=[N+]=[N-])[C@@H](CO)O2)c(=O)[nH]c1=O` [AZT, zidovudine] as the compound, how does the “Table 8 readout of HIV-1 14aPre growth” value ([1]; AZT 0.005 μM alone) read?
Answer: 25

Question: And the “Table 8 readout of HIV-1 14aPre growth” value ([1]; AZT 0.01 μM alone)?
Answer: 17.5

Question: And the “Table 8 readout of HIV-1 14aPre growth” value ([1]; AZT 0.02 μM alone)?
Answer: 9.8

Question: What about the p24 levels ([2]; 0.004-50 μM, drug added 2 hours prior to infection) of the same compound?
Answer: substantially reduced

Question: And the “Antiviral Activity ID50, JR-CSF” value ([2]; PHA blasts, PIC 024.4 30% polymer by weight)?
Answer: 0.001 µg/mL

Question: What about the “IC50 syncytium inhibition (HL2/3)” value [3] of the same compound?
Answer: inactive

Question: What about the EC50 ([4]; 168 h, read-out: EC50, Day 7) of the same compound?
Answer: 0.005 µg/mL (≈ 0.0187 µM)

Question: What about the EC90 ([4]; 168 h, read-out: EC90, Day 7) of the same compound?
Answer: 0.02 µg/mL (≈ 0.0748 µM)

Question: What about the EC50 ([4]; 336 h, read-out: EC50, Day 14) of the same compound?
Answer: 0.003 µg/mL (≈ 0.0112 µM)

Question: What about the EC90 ([4]; 336 h, read-out: EC90, Day 14) of the same compound?
Answer: 0.01 µg/mL (≈ 0.0374 µM)

Question: What does the source list for `O=C(O)C1=CC(=C(c2ccc(O)c(C(=O)O)c2)c2ccc(O)c(C(=O)O)c2)C=CC1=O` [Aurintricarboxylic acid]?
Answer: IC50 [5]: ~2.37 µM; IC50 MAb binding inhibition, OKT4 [6]: did not affect; IC50 [7]: 206 µM; IC50 [8]: 294 µM

Question: Which results are given for `OC[C@@H]1CC[C@H](n2cnc3c(O)ncnc32)O1` [ddI, 2′,3′-Dideoxyinosine]?
Answer: Table 8 readout of HIV-1 14aPre growth ([1]; DDI 1.25 μM alone): 36.5; Table 8 readout of HIV-1 14aPre growth ([1]; DDI 5 μM alone): 11.2; Table 8 readout of HIV-1 14aPre growth ([1]; DDI 10 μM alone): 1.2; Antiviral Activity ID50, IIIB [9]: 1.2 µg/mL

Question: With dextran sulfate as the compound, how does the “Antiviral Activity ID50, IIIB” value ([10]; AHT 8) read?
Answer: 8 µg/mL

Question: What about the “Antiviral Activity ID50, IIIB” value ([10]; TM 11) of the same compound?
Answer: 4 µg/mL

Question: What about the “IC50 BIAcore inhibition” value [11] of the same compound?
Answer: inactive

Question: And the “IC50 gp120/CEM binding inhibition” value [12]?
Answer: 23 µg/mL

Question: And the “IC50 gp120/CD4 binding inhibition (ELISA)” value ([5]; recombinant gp120 IIIB, recombinant sCD4, PIC 024.4 based on 100% polymer by weight)?
Answer: inactive

Question: And the “IC50 syncytium inhibition (HL2/3)” value [3]?
Answer: 0.9 µg/mL

Question: And the “activity against many monocytotropic isolates” value [13]?
Answer: inactive

Question: What about the “IC50 gp120/whole blood binding inhibition” value [14] of the same compound?
Answer: ≥ 1000 µg/mL

From patent US6365625B1, “Compound for inhibiting HIV infectivity” (Procept, Inc., priority 1993, dated 2002)
